Assay results from patent publication US20110045101A1, “FUNGICIDAL SUBSTITUTED AZOLES” (E.I. Du Pont De Nemours and Company, priority 2009, published 2011).
Marks after values point to notes of the source that are not given here.

Experiments:
Type in all cases: in vivo
Conditions in all cases: 100 = 100% disease control
Septoria nodorum = assay: Test F: wheat glume blotch on wheat seedlings, sprayed the day before inoculation, visual disease rating
How it was run: (§1)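 200 ppm run-off spray (500 g/ha equivalent); * = 40 ppm. Vehicle: acetone/water 50/50, 250 ppm Trem® 014.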

Alternaria solani = assay: Test D: tomato early blight, sprayed the day before inoculation, visual disease rating
How it was run: as §1

[1] = test system: Puccinia recondita f. sp. tritici; assay: Test I: wheat leaf rust on wheat seedlings, sprayed the day before inoculation, visual disease rating
How it was run: as §1

Septoria tritici = assay: Test G: wheat leaf blotch on wheat seedlings, sprayed the day before inoculation, visual disease rating
How it was run: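 Disease was rated visually after Septoria tritici inoculation, 48 h saturated incubation at 24°C and 19 days in a 20°C growth chamber. Inoculation followed one day after run-off spraying of seedlings with compound at 200 ppm (≈500 g/ha) or, where marked, 40 ppm, formulated in acetone/water with surfactant.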

Botrytis cinerea = assay: Test C: tomato Botrytis on tomato seedlings, sprayed the day before inoculation, visual disease rating
How it was run: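 Tomato seedlings were sprayed until run-off with test suspensions in acetone/water (50/50) carrying 250 ppm polyhydric alcohol ester surfactant. Standard dose was 200 ppm, with 40 ppm for marked entries.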

[2] = test system: Puccinia recondita f. sp. tritici; assay: Test H: wheat leaf rust, test suspension sprayed after inoculation of wheat seedlings, visual disease rating
How it was run: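 Wheat seedlings inoculated with P. recondita spores, held 24 h saturated at 20 °C, then 2 days in growth chamber at 20 °C; compound suspension (acetone/water with Trem 014) sprayed to run-off afterwards. Rated visually; 200 ppm (≈500 g/ha) unless marked *, which denotes 40 ppm.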

[3] = test system: Erysiphe graminis f. sp. tritici; assay: Test J: wheat powdery mildew on wheat seedlings, sprayed the day before inoculation, visual disease rating
How it was run: as §1

[4] = 200 ppm, 0 = no control relative to controls
[5] = 40 ppm (marked *), 0 = no control

Structure (SMILES)	Test F disease control rating (Septoria nodorum; [4])	Test D disease control rating (Alternaria solani; [4])	Test I disease control rating [1, 4]	Test G disease control rating (Septoria tritici; [4])	Test C disease control rating (Botrytis cinerea; [4])	Test H disease control rating [2, 4]	Test J disease control rating [3, 4]	also measured
Fc1cccc(-n2c(Br)nc(Cl)c2-c2c(F)cc(F)cc2F)c1 [compound 367]	89%	100%	98%	90%	99%	9%	97%	–
COc1ccc(-n2c(Br)nc(Br)c2-c2c(F)cccc2F)cn1 [compound 622]	99%	100%	100%	99%	100%	100%	100%	–
COc1cc(OC)c(Br)c(-n2c(C)nc(Br)c2Cc2ccc(F)cc2F)c1Br [compound 477]	0%	0%	75%	0%	9%	0%	0%	–
COc1cc(F)c(-c2c(Cl)nc(C)n2-c2ccc(C)c(Cl)c2)c(F)c1 [compound 601]	–	–	–	–	–	–	–	Test F disease control rating (Septoria nodorum; 40 ppm (marked *)): 87* %; Test D disease control rating (Alternaria solani; 40 ppm (marked *)): 98* %; Test I disease control rating ([1]; 40 ppm (marked *)): 97* %; Test G disease control rating (Septoria tritici; 40 ppm (marked *)): 99* %; Test C disease control rating (Botrytis cinerea; 40 ppm (marked *)): 99* %; Test H disease control rating ([2]; 40 ppm (marked *)): 7* %; Test J disease control rating ([3]; 40 ppm (marked *)): 97* %
Cc1nc(Br)n(-c2ccc(Cl)nc2)c1-c1c(F)cccc1F [compound 682]	99%	100%	100%	100%	100%	97%	100%	–
Cc1nc(Cl)c(-c2c(F)cccc2F)n1-c1ccc(SCCl)cc1 [compound 529]	0%	0%	48%	82%	0%	9%	0%	–
COc1cc(OC)cc(-n2cnc(C)c2-c2c(F)cc(OC)cc2F)c1 [Compound 632, 5-(2,6-difluoro-4-methoxyphenyl)-1-(3,5-dimethoxyphenyl)-4-methyl-1H-imidazole]	–	–	–	–	–	–	–	pest or weed control at 200 ppm (Septoria nodorum; Parastagonospora nodorum, 264 h, 200 ppm, 0 = no control relative to controls): 0%; pest or weed control at 200 ppm (Alternaria solani; Alternaria solani, 168 h, 200 ppm, 0 = no control relative to controls): 100%; pest or weed control at 200 ppm ([1]; Puccinia recondita, 168 h, 200 ppm, 0 = no control relative to controls): 100%; pest or weed control at 200 ppm (Septoria tritici; Zymoseptoria tritici, 504 h, 200 ppm, 0 = no control relative to controls): 98%; pest or weed control at 200 ppm (Botrytis cinerea; Botrytis cinerea, 120 h, 200 ppm, 0 = no control relative to controls): 99%; pest or weed control at 200 ppm ([2]; Puccinia recondita, 96 h, 200 ppm, 0 = no control relative to controls): 99%; pest or weed control at 200 ppm ([3]; Blumeria graminis, 168 h, 200 ppm, 0 = no control relative to controls): 97%
Fc1ccc(F)c(-c2c(Br)nc(Br)n2-c2ccc(Cl)cc2)c1Cl [compound 374]	0%	99%	90%	94%	99%	0%	98%	–
COc1cc(F)c(-c2c(C)nc(Cl)n2-c2ccc(OC)nc2)c(F)c1 [compound 737]	100%	100%	100%	100%	100%	100%	100%	–
Cc1nc(C)n(-c2c(F)cc(F)cc2F)c1-c1ccc(Cl)cc1 [compound 308]	–	–	–	–	–	–	–	Test F disease control rating (Septoria nodorum; [5]): 0* %; Test D disease control rating (Alternaria solani; [5]): 100* %; Test I disease control rating [1, 5]: 41* %; Test G disease control rating (Septoria tritici; [5]): 88* %; Test C disease control rating (Botrytis cinerea; [5]): 99* %; Test H disease control rating [2, 5]: 11* %; Test J disease control rating [3, 5]: 0* %
CNc1nc(Cl)c(-c2c(F)cc(OC)cc2F)n1-c1ccc(Cl)cc1 [compound 692]	0%	70%	0%	99%	100%	8%	79%	–
COc1ccc(F)c(-c2c(Br)nc(Cl)n2-c2ccc(F)cc2)c1F [compound 472]	100%	100%	100%	96%	100%	80%	100%	–
COc1cc(F)c(-c2c(N(C)C)ncn2Cc2ccc(C)cc2)c(F)c1 [compound 275]	–	–	–	–	–	–	–	Test F disease control rating (Septoria nodorum; 200 ppm, 0 = no control): 0%; Test D disease control rating (Alternaria solani; 200 ppm, 0 = no control): 82%; Test I disease control rating ([1]; 200 ppm, 0 = no control): 74%; Test G disease control rating (Septoria tritici; 200 ppm, 0 = no control): 85%; Test C disease control rating (Botrytis cinerea; 200 ppm, 0 = no control): 100%; Test H disease control rating ([2]; 200 ppm, 0 = no control): 9%; Test J disease control rating ([3]; 200 ppm, 0 = no control): 0%
COc1cc(F)c(-c2c(Cl)nc(Cl)n2-c2cccnc2Br)c(F)c1 [compound 576]	100%	99%	100%	100%	100%	100%	99%	–
Cc1nc(Br)n(-c2ccc(Cl)nc2)c1-c1c(F)ccc(C#N)c1F [compound 715]	78%	100%	99%	99%	100%	100%	73%	–
Cc1ccc(-n2c(Cl)nc(Br)c2-c2c(F)ccc(F)c2F)cc1 [compound 465]	–	–	–	–	–	–	–	Test F disease control rating (Septoria nodorum; 40 ppm (marked *)): 0* %; Test D disease control rating (Alternaria solani; 40 ppm (marked *)): 99* %; Test I disease control rating ([1]; 40 ppm (marked *)): 99* %; Test G disease control rating (Septoria tritici; 40 ppm (marked *)): 88* %; Test C disease control rating (Botrytis cinerea; 40 ppm (marked *)): 100* %; Test H disease control rating ([2]; 40 ppm (marked *)): 0* %; Test J disease control rating ([3]; 40 ppm (marked *)): 99* %
